Assay results published in US9695155B2, “Herbicidal substituted pyrimidinyloxy benzene compounds” (E. I. DU PONT DE NEMOURS AND COMPANY, priority 2013, dated 2017).

Key:
Assay in all cases: Test E postemergence
palmer pigweed = assay type: in vivo, Amaranthus palmeri
Text: (§1) Seeds of plant species selected from corn (Zea mays), soybean (Glycine max), velvetleaf (Abutilon theophrasti), lambsquarters (Chenopodium album), wild poinsettia (Euphorbia heterophylla), palmer pigweed (Amaranthus palmeri), waterhemp (common waterhemp, Amaranthus rudis), surinam grass (Brachiaria decumbens), large (Lg) crabgrass (Digitaria sanguinalis), Brazilian crabgrass (Digitaria horizontalis), fall panicum (Panicum dichotomiflorum), giant foxtail (Setaria faberii), green foxtail (Setaria viridis), goosegrass (Eleusine indica), johnsongrass (Sorghum halepense), ragweed (common ragweed, Ambrosia elatior), barnyardgrass (Echinochloa crus-galli), sandbur (southern sandbur, Cenchrus echinatus), arrowleaf sida (Sida rhombifolia), Italian ryegrass (Lolium multiflorum), dayflower (Virginia (VA) dayflower, Commelina virginica), field bindweed (Convolvulus arvensis), morningglory (Ipomoea coccinea), nightshade (eastern black nightshade, Solanum ptycanthum), kochia (Kochia scoparia), yellow nutsedge (Cyperus esculentus), cocklebur (common cocklebur, Xanthium strumarium), smartweed (ladysthumb smartweed, and hairy beggarticks (Bidens pilosa), were planted into a silt loam soil and treated preemergence with test chemicals formulated in a non-phytotoxic solvent mixture which included a surfactant.
(§2) At the same time, plants from these crop and weed species and also horseweed (Canada horseweed, Conyza canadensis), waterhemp_RES1, (ALS & Triazine resistant common waterhemp, Amaranthus rudis), and waterhemp_RES2, (ALS & HPPD resistant common waterhemp, Amaranthus rudis) were planted in pots containing Redi-Earth® planting medium (Scotts Company, 14111 Scottslawn Road, Marysville, Ohio 43041) comprising spaghnum peat moss, vermiculite, wetting agent and starter nutrients were treated with postemergence applications of test chemicals formulated in the same manner. Plants ranged in height from 2 to 18 cm for postemergence treatments (1- to 4-leaf stage). Treated plants and controls were maintained in a greenhouse for 14 to 21 days, after which time all species were compared to controls and visually evaluated. Plant response ratings, summarized in Table E, are based on a scale of 0 to 100 where 0 is no effect and 100 is complete control. A dash (-) response means no test result.

corn = assay type: in vivo, Zea mays
Text: as §1, §2

barnyardgrass = assay type: in vivo, Echinochloa crus-galli
Text: as §1, §2

wild poinsettia = assay type: in vivo, Euphorbia heterophylla
Text: as §1, §2

[1] = Postemergence, 31 g ai/ha, scale 0 to 100
[2] = Postemergence, 62 g ai/ha, scale 0 to 100
[3] = Postemergence, 125 g ai/ha, scale 0 to 100
[4] = postemergence, 8 g ai/ha, scale 0 to 100, 0 no effect, 100 complete control
[5] = postemergence, 16 g ai/ha, scale 0 to 100, 0 no effect, 100 complete control

| SMILES | Plant response rating, Pigweed, Palmer (palmer pigweed; [1]) | Plant response rating, Pigweed, Palmer (palmer pigweed; [2]) | Plant response rating, Pigweed, Palmer (palmer pigweed; [3]) | Plant response rating, Pigweed, Palmer (palmer pigweed; [4]) | Plant response rating, Pigweed, Palmer (palmer pigweed; [5]) | Plant response rating, Corn (corn; [1]) | Plant response rating, Corn (corn; [2]) | Plant response rating, Corn (corn; [3]) | Plant response rating, Corn (corn; [4]) | Plant response rating, Corn (corn; [5]) | Plant response rating, Barnyardgrass (barnyardgrass; [1]) | Plant response rating, Barnyardgrass (barnyardgrass; [2]) | Plant response rating, Barnyardgrass (barnyardgrass; [3]) | Plant response rating, Barnyardgrass (barnyardgrass; [4]) | Plant response rating, Barnyardgrass (barnyardgrass; [5]) | Plant response rating, Poinsettia, Wild (wild poinsettia; [1]) | Plant response rating, Poinsettia, Wild (wild poinsettia; [2]) | Plant response rating, Poinsettia, Wild (wild poinsettia; [3]) | Plant response rating, Poinsettia, Wild (wild poinsettia; [4]) | Plant response rating, Poinsettia, Wild (wild poinsettia; [5]) | also measured |
| --- | --- | --- | --- | --- | --- | --- | --- | --- | --- | --- | --- | --- | --- | --- | --- | --- | --- | --- | --- | --- | --- |
| Clc1cnn(-c2ccccc2Oc2ncc(Br)cn2)c1 [Compound 5, 5-bromo-2-[2-(4-chloro-1H-pyrazol-1-yl)phenoxy]pyrimidine] | – | – | – | – | – | – | – | – | – | – | – | – | – | – | – | – | – | – | – | – | pest or weed control at 31 g/ha (palmer pigweed; post-emergence, Postemergence, 31 g ai/ha, scale 0 to 100, read-out: Plant response rating, Pigweed, Palmer): 75%; pest or weed control at 62 g/ha (palmer pigweed; post-emergence, Postemergence, 62 g ai/ha, scale 0 to 100, read-out: Plant response rating, Pigweed, Palmer): 85%; pest or weed control at 125 g/ha (palmer pigweed; post-emergence, Postemergence, 125 g ai/ha, scale 0 to 100, read-out: Plant response rating, Pigweed, Palmer): 95%; pest or weed control at 250 g/ha (palmer pigweed; post-emergence, Postemergence, 250 g ai/ha, scale 0 to 100, read-out: Plant response rating, Pigweed, Palmer): 98%; pest or weed control at 16 g/ha (palmer pigweed; post-emergence, postemergence, 16 g ai/ha, scale 0 to 100, 0 no effect, 100 complete control, read-out: Plant response rating, Pigweed, Palmer): 60%; corn plant response (injury) rating, 0-100 at 31 g/ha (corn; Zea mays, post-emergence, Postemergence, 31 g ai/ha, scale 0 to 100): 0%; corn plant response (injury) rating, 0-100 at 62 g/ha (corn; Zea mays, post-emergence, Postemergence, 62 g ai/ha, scale 0 to 100): 0%; corn plant response (injury) rating, 0-100 at 125 g/ha (corn; Zea mays, post-emergence, Postemergence, 125 g ai/ha, scale 0 to 100): 0%; corn plant response (injury) rating, 0-100 at 250 g/ha (corn; Zea mays, post-emergence, Postemergence, 250 g ai/ha, scale 0 to 100): 0%; corn plant response (injury) rating, 0-100 at 16 g/ha (corn; Zea mays, post-emergence, postemergence, 16 g ai/ha, scale 0 to 100, 0 no effect, 100 complete control): 0%; pest or weed control at 31 g/ha (barnyardgrass; Echinochloa crus-galli, post-emergence, Postemergence, 31 g ai/ha, scale 0 to 100, read-out: Plant response rating, Barnyardgrass): 0%; pest or weed control at 62 g/ha (barnyardgrass; Echinochloa crus-galli, post-emergence, Postemergence, 62 g ai/ha, scale 0 to 100, read-out: Plant response rating, Barnyardgrass): 0%; pest or weed control at 125 g/ha (barnyardgrass; Echinochloa crus-galli, post-emergence, Postemergence, 125 g ai/ha, scale 0 to 100, read-out: Plant response rating, Barnyardgrass): 0%; pest or weed control at 250 g/ha (barnyardgrass; Echinochloa crus-galli, post-emergence, Postemergence, 250 g ai/ha, scale 0 to 100, read-out: Plant response rating, Barnyardgrass): 10%; pest or weed control at 16 g/ha (barnyardgrass; Echinochloa crus-galli, post-emergence, postemergence, 16 g ai/ha, scale 0 to 100, 0 no effect, 100 complete control, read-out: Plant response rating, Barnyardgrass): 0%; pest or weed control at 31 g/ha (wild poinsettia; Euphorbia heterophylla, post-emergence, Postemergence, 31 g ai/ha, scale 0 to 100, read-out: Plant response rating, Poinsettia, Wild): 20%; pest or weed control at 62 g/ha (wild poinsettia; Euphorbia heterophylla, post-emergence, Postemergence, 62 g ai/ha, scale 0 to 100, read-out: Plant response rating, Poinsettia, Wild): 30%; pest or weed control at 125 g/ha (wild poinsettia; Euphorbia heterophylla, post-emergence, Postemergence, 125 g ai/ha, scale 0 to 100, read-out: Plant response rating, Poinsettia, Wild): 35%; pest or weed control at 250 g/ha (wild poinsettia; Euphorbia heterophylla, post-emergence, Postemergence, 250 g ai/ha, scale 0 to 100, read-out: Plant response rating, Poinsettia, Wild): 50%; pest or weed control at 16 g/ha (wild poinsettia; Euphorbia heterophylla, post-emergence, postemergence, 16 g ai/ha, scale 0 to 100, 0 no effect, 100 complete control, read-out: Plant response rating, Poinsettia, Wild): 10% |
| FC(F)(F)c1cnn(-c2c(Br)cccc2Oc2ncc(Cl)cn2)c1 [Compound 191] | 75 | 75 | 85 | 20 | 40 | 10 | 10 | 15 | 0 | 0 | 0 | 0 | 0 | 0 | 0 | 50 | 50 | 60 | 20 | 40 | – |
| Clc1cnc(Oc2cccc(Cl)c2-n2cc(I)cn2)nc1 [Compound 181] | 70 | 90 | 98 | – | 80 | 5 | 15 | 15 | – | 5 | 20 | 15 | 25 | – | 10 | 50 | 50 | 60 | – | 40 | – |
| Clc1cnc(Oc2ccccc2-n2cc(Br)nn2)nc1 [Compound 223] | 50 | 60 | 85 | 15 | 25 | 0 | 0 | 5 | 0 | 0 | 0 | 0 | 0 | 0 | 0 | 40 | 50 | 60 | 30 | 30 | – |
